pIC50: −log10 of the molar value. Like-named read-outs stand apart in the source and are kept apart here.
Experiments:
TRKA (G677C) = TRKA (G677C) (Homo sapiens, UniProt P04629, G667C); experiment: Radio-tagged HotSpot kinase assay, TRKA (G677C); assay type: biochemical; conditions: 33P-ATP, 120 min, room temperature
Method: (§2) Inhibition of protein kinase activity by compounds was carried out on the Radio-tagged HotSpot kinase experimental platform of Reaction Biology Corporation. Fresh reaction solution (20 mM HEPESpH 7.5, 10 mM MgCl2, 1 mM EGTA, 0.02% Brij35, 0.02 mg/ml BSA, 0.1 mM Na3VO4, 2 mM DTT, 1% DMSO) containing corresponding substrates was prepared, cofactor and kinase to be tested were added into the above solution and mixed gently. Echo550 pipetting system was used to add the test compound DMSO solution to each well (the blank control group was added with the corresponding volume of DMSO), then 33P-ATP (with a final specific activity of 0.01 μCi/μL) was added to start the reaction. The reaction solution was incubated at room temperature for 120 minutes.

Ba/F3-CD74-ROS1 = experiment: Inhibition of cell proliferation (CellTiter-Glo), Ba/F3-CD74-ROS1; assay type: cell-based; conditions: 72 hours
Method: (§1) The experiment of inhibiting cell proliferation by compounds was carried out in Hefei Zhongkeprecedo Biomedical Technology Co., Ltd. The Ba/F3 engineered cell line stably transfected with different kinase genes was recovered with RPMI 1640 medium (Biological Industries, Israel)+10% fetal bovine serum (Biological Industries, Israel)+1% double antibody (Penicillin Streptomycin solution, Coring, USA) and cultivated two generations. The logarithmic growth phase cell suspension was taken, and 2000 cells/well were inoculated on 96-well white cell culture plate (Corning 3917, NY, USA) with a volume of 95 μL per well. 5 μL of 20×DMSO solution of the compound to be tested was added into the culture plate containing 95 μL of cell suspension. The blank control group was added with corresponding volume of DMSO, mixed well, and incubated in a 5% CO2 incubator at 37° C. for 72 hours. CellTiter-Glo was used to detect cell viability.

Ba/F3-CD74-ROS1-G2032R = experiment: Inhibition of cell proliferation (CellTiter-Glo), Ba/F3-CD74-ROS1-G2032R; assay type: cell-based; conditions: 72 hours;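 also: Ba/F3 cell line expressing the CD74-ROS1 fusion with G2032R mutation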
Method: as §1

Ba/F3-LMNA-NTRK1 = experiment: Inhibition of cell proliferation (CellTiter-Glo), Ba/F3-LMNA-NTRK1; assay type: cell-based; conditions: 72 hours
Method: as §1

Ba/F3-LMNA-NTRK1-G595R = experiment: Inhibition of cell proliferation (CellTiter-Glo), Ba/F3-LMNA-NTRK1-G595R; assay type: cell-based; conditions: 72 hours
Method: as §1

TRKB = TRKB (Homo sapiens (Human), UniProt Q16620); experiment: Radio-tagged HotSpot kinase assay, TRKB; assay type: biochemical; conditions: 33P-ATP, 120 min, room temperature
Method: as §2

TRKC = TRKC (Homo sapiens (Human), UniProt Q16288); experiment: Radio-tagged HotSpot kinase assay, TRKC; assay type: biochemical; conditions: 33P-ATP, 120 min, room temperature
Method: as §2

ROS1 = ROS1 (Homo sapiens (Human), UniProt P08922); experiment: Radio-tagged HotSpot kinase assay, ROS1; conditions: for IC50: read-out: ROS1 (IC50/nM), 33P-ATP, 120 min, room temperature
Method: as §2

TRKA = TRKA (Homo sapiens (Human), UniProt P04629); experiment: Radio-tagged HotSpot kinase assay, TRKA;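 also: kinase activity measured through incorporation of 33P from labelled ATP into substrate, 120 min at room temperature, relative to a DMSO-only blank control, reported as inhibition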
Method: as §2

TRKA (G595R) = TRKA (G595R) (Homo sapiens (Human), UniProt P04629, G595R); experiment: Radio-tagged HotSpot kinase assay, TRKA (G595R)
Method: as §2

ROS1 (G2032R) = ROS1 (G2032R) (Homo sapiens (Human), UniProt P08922, G2032R); experiment: Radio-tagged HotSpot kinase assay, ROS1 (G2032R); conditions: for IC50: read-out: ROS1 (G2032R) (IC50/nM), 33P-ATP, 120 min, room temperature
Method: as §2

ALK = ALK (Homo sapiens (Human), UniProt Q9UM73); experiment: Radio-tagged HotSpot kinase assay, ALK; assay type: biochemical; conditions: 33P-ATP, 120 min, room temperature
Method: as §2

ALK (G1202R) = ALK (G1202R) (Homo sapiens (Human), UniProt Q9UM73, G1202R); experiment: Radio-tagged HotSpot kinase assay, ALK (G1202R); assay type: biochemical; conditions: 33P-ATP, 120 min, room temperature
Method: as §2

Chain of TRKA (G677C) (P04629 33-796 G667C limits assumed): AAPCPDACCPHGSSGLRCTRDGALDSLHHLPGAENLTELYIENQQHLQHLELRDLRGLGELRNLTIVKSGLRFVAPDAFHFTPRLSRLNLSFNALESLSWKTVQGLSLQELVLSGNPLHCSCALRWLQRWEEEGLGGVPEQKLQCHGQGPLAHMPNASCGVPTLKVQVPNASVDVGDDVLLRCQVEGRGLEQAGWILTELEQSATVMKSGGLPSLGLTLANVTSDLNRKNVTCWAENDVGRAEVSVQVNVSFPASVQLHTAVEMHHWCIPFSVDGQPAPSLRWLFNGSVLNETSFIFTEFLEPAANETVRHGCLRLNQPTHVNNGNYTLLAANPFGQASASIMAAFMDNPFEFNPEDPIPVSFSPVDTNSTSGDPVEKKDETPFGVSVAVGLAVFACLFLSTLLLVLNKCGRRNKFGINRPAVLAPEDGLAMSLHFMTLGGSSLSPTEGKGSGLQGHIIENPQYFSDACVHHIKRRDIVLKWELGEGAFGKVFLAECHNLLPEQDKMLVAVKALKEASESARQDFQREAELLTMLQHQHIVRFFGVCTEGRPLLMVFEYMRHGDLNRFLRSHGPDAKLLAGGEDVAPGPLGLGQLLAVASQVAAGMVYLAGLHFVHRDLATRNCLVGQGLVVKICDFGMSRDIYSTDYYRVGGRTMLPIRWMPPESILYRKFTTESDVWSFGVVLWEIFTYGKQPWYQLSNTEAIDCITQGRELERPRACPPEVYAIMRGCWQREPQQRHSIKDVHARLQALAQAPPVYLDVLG
Chain of ROS1 (P08922 28-2347): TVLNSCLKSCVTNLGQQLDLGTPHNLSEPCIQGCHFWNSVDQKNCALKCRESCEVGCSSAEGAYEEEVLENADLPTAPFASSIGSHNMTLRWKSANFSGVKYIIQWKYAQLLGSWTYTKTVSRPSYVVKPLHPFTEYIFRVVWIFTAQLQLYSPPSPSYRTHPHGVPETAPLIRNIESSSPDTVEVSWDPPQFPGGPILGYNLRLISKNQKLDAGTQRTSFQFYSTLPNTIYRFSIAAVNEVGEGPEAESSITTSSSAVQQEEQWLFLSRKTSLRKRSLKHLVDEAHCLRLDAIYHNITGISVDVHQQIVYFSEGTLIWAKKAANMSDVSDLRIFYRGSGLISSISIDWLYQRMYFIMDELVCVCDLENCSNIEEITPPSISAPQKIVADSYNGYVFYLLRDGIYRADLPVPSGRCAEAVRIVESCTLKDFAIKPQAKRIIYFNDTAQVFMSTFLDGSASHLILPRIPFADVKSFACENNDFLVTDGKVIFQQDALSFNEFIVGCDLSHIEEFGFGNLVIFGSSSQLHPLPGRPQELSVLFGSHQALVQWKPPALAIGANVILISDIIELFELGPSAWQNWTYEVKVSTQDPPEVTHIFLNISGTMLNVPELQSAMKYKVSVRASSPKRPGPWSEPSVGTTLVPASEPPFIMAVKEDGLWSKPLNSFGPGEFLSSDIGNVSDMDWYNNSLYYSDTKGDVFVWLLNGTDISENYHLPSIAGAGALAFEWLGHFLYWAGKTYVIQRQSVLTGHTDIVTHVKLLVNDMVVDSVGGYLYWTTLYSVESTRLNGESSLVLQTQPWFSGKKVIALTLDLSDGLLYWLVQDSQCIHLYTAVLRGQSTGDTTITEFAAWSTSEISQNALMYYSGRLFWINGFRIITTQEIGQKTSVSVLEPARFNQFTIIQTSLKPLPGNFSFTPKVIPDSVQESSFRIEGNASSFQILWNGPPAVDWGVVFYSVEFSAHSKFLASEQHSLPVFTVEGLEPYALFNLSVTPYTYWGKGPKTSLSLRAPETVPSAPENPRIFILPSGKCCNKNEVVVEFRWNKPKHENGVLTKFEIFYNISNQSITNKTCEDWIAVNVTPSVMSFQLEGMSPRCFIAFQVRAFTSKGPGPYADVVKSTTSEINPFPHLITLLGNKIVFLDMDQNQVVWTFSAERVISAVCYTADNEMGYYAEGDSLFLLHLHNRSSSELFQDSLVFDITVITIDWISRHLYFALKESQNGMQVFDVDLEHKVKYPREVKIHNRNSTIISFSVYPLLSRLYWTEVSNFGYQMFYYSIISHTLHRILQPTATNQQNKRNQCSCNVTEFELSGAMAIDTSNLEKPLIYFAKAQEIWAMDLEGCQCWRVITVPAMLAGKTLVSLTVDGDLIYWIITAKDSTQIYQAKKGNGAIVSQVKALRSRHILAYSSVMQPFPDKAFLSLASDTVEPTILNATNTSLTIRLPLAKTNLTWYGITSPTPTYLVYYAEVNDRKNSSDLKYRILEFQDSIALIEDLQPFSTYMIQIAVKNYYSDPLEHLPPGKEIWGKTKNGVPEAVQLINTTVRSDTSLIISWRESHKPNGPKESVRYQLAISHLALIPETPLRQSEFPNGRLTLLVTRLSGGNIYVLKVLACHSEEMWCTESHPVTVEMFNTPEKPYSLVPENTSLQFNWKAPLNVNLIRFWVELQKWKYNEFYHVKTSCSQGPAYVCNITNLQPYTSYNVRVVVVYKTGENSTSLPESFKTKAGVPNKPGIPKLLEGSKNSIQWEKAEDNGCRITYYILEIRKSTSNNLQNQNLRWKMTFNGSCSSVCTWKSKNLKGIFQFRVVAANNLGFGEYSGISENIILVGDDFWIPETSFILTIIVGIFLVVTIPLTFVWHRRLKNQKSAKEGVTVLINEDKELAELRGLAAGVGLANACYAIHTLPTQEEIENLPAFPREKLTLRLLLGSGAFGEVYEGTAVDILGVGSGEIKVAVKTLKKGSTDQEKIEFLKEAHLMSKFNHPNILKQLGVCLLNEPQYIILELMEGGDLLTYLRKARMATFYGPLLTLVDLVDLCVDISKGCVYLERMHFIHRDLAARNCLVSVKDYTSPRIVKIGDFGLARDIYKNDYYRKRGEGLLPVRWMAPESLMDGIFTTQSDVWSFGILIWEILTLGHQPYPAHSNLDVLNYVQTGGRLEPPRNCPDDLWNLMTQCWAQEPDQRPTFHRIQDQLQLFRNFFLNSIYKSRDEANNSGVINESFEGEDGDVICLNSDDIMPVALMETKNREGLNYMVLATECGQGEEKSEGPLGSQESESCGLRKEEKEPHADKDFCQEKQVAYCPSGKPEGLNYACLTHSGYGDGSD
Chain of TRKA (G595R) (P04629 33-796 G595R): as the sequence (P04629 33-796 G667C limits assumed) above, with G563R, C635G counted along it
Chain of TRKB (Q16620 32-822): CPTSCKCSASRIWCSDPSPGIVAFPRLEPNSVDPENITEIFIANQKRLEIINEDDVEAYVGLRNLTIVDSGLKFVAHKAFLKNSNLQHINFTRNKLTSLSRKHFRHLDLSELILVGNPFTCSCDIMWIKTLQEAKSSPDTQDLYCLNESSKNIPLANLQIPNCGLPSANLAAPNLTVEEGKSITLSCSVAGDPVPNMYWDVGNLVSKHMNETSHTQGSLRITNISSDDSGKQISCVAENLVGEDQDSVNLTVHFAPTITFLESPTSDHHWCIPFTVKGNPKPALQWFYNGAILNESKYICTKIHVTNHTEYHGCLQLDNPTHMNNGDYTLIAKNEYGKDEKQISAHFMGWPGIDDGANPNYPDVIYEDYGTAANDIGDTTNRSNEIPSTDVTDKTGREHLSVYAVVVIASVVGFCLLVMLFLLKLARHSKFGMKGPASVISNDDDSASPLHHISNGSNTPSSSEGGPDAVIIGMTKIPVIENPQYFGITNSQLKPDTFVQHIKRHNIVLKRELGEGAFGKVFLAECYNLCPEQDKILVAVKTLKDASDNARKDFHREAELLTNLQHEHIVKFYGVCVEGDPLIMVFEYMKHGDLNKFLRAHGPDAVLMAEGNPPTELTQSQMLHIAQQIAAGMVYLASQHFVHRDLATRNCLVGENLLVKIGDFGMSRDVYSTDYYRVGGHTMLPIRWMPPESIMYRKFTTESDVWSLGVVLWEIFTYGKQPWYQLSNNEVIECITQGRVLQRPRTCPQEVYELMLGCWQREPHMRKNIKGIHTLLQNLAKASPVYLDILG
Chain of TRKC (Q16288 32-839): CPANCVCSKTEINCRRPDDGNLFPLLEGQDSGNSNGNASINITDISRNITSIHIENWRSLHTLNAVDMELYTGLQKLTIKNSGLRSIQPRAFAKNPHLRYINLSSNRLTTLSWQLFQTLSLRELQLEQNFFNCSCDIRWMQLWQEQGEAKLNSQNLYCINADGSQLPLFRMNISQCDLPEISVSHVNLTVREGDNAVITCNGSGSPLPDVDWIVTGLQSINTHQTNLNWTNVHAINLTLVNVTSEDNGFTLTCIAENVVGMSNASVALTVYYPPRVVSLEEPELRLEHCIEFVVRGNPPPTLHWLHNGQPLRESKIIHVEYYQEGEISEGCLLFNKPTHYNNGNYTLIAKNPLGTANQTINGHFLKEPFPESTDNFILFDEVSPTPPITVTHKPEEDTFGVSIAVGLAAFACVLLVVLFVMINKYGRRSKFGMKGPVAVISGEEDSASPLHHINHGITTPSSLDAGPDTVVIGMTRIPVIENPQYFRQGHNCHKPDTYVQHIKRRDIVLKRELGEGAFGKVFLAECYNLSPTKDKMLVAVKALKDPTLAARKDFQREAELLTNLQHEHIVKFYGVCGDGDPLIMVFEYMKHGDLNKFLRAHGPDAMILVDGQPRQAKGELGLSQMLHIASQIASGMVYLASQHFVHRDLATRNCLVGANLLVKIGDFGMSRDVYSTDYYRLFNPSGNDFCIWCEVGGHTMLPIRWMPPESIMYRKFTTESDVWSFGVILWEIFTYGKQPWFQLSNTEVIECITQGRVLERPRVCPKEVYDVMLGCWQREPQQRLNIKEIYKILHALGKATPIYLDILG
Chain of TRKA (P04629 33-796): as the sequence (P04629 33-796 G667C limits assumed) above, with C635G counted along it
Chain of ROS1 (G2032R) (P08922 28-2347 G2032R): as the sequence (P08922 28-2347) above, with G2005R counted along it

IC50 (Ba/F3-CD74-ROS1-G2032R) | IC50 (Ba/F3-LMNA-NTRK1-G595R) | IC50 (TRKB) | IC50 (TRKC) | pIC50 (TRKA) | Structure (SMILES) | other results
59.2 nM | 13.9 nM | – | – | – | COc1ccc(F)cc1[C@@H](C)Nc1ccn2ncc(C3=NOC4(CCCC4)N3)c2n1 [Example 44] | IC50 (TRKA (G677C)): 0.5 to 5 nM; IC50 (Ba/F3-CD74-ROS1): 6.9 nM; IC50 (Ba/F3-LMNA-NTRK1): 14.2 nM
23.5 nM | 5.1 nM | – | – | – | C[C@@H](Nc1ccn2ncc(C3=NOC(C)(C)N3)c2n1)c1cc(F)ccc1OC(F)(F)F [Example 17] | IC50 (Ba/F3-CD74-ROS1): 2.8 nM; IC50 (Ba/F3-LMNA-NTRK1): 2.3 nM
– | – | 0.5 to 5 nM | < 0.5 nM | 8.30 to 9.30 | C[C@H](Nc1ccn2ncc(C3=NOC(C)(C)N3)c2n1)c1cc(F)cc2ccccc12 [Example 54] | IC50 (ROS1): < 0.5 nM; pIC50 (TRKA (G595R)): 8.30 to 9.30; IC50 (ROS1 (G2032R)): < 0.5 nM
140 nM | – | – | – | – | CCCC1(C)NC(c2cnn3ccc(N[C@H](C)c4cc(F)ccc4OC)nc23)=NO1 (some centres unmarked) [Example 19] | –
16.3 nM | 7 nM | – | – | – | COc1c(F)cc(F)cc1[C@@H](C)Nc1ccn2ncc(C3=NOC(C)(C)N3)c2n1 [Example 30] | IC50 (Ba/F3-CD74-ROS1): 2.2 nM; IC50 (Ba/F3-LMNA-NTRK1): 5.8 nM
– | – | – | – | – | C[C@H](Nc1ccn2ncc(C3=NOC(C)(C)N3)c2n1)c1cc(F)ccc1Br [Example 24] | IC50 (TRKA; read-out: TRKA (IC50/nM), 33P-ATP, 120 min, room temperature): > 500 nM
– | – | – | – | – | [2H]C([2H])([2H])Oc1ccc(F)cc1[C@@H](C)Nc1ccn2ncc(C3=NOC(C)(C)N3)c2n1 [Example 4] | IC50 (TRKA (G677C)): 5 to 50 nM; IC50 (ALK): 0.5 to 5 nM; IC50 (ALK (G1202R)): 5 to 50 nM; pIC50 (TRKA (G595R)): 7.30 to 8.30
– | – | 0.5 to 5 nM | < 0.5 nM | 8.30 to 9.30 | C[C@@H](Nc1ccn2ncc(C3=NCC(C)(C)N3)c2n1)c1cc(F)ccc1F [Example 65] | IC50 (ROS1): < 0.5 nM; pIC50 (TRKA (G595R)): 8.30 to 9.30; IC50 (ROS1 (G2032R)): < 0.5 nM
– | – | 0.5 to 5 nM | 0.5 to 5 nM | 8.30 to 9.30 | C[C@@H](Nc1ccn2ncc(C3=NOC(C)(C)N3)c2n1)c1c(Cl)ccc(F)c1Cl [Example 14] | IC50 (TRKA (G677C)): 5 to 50 nM; IC50 (ALK (G1202R)): 5 to 50 nM; pIC50 (ROS1): 8.30 to 9.30; pIC50 (TRKA (G595R)): 7.30 to 8.30; pIC50 (ROS1 (G2032R)): 8.30 to 9.30
– | – | 0.5 to 5 nM | 0.5 to 5 nM | 8.30 to 9.30 | C[C@@H](Nc1ccn2ncc(C3=NOC(C)(C)N3)c2n1)c1ccccc1Cl [Example 26] | IC50 (ALK): 5 to 50 nM; pIC50 (ROS1): 8.30 to 9.30
120 nM | 386 nM | – | – | – | C[C@@H](Nc1ccn2ncc(C3=NOC(C)(C)N3)c2n1)c1cc(F)ccc1C(F)(F)F [Example 33] | IC50 (Ba/F3-CD74-ROS1): 15.7 nM; IC50 (Ba/F3-LMNA-NTRK1): 25.9 nM
– | – | 0.5 to 5 nM | < 0.5 nM | 8.30 to 9.30 | CCOCC1(C)NC(c2cnn3ccc(N[C@H](C)c4cc(F)ccc4O)nc23)=NO1 (some centres unmarked) [Example 66] | IC50 (ROS1): < 0.5 nM; pIC50 (TRKA (G595R)): 8.30 to 9.30; IC50 (ROS1 (G2032R)): < 0.5 nM
– | – | – | – | 6.30 to 7.30 | CC(Nc1ccn2ncc(C3=NOC(C)(C)N3)c2n1)c1ccc(F)cc1 (racemic) [Example 25 racemate] | –
– | – | 0.5 to 5 nM | 0.5 to 5 nM | 8.30 to 9.30 | Cc1ccc(F)cc1[C@@H](C)Nc1ccn2ncc(C3=NOC(C)(C)N3)c2n1 [Example 42] | IC50 (ALK): 5 to 50 nM; pIC50 (ROS1): 8.30 to 9.30
– | – | 0.5 to 5 nM | 0.5 to 5 nM | 8.30 to 9.30 | C[C@@H](Nc1ccn2ncc(C3=NOC(C)(C)N3)c2n1)c1cc(F)cc(F)c1 [Example 27] | IC50 (ALK): 5 to 50 nM; pIC50 (ROS1): 8.30 to 9.30
– | – | – | – | 6.30 to 7.30 | COc1ccc(F)cc1[C@H](C)Nc1ccn2ncc(C3=NOC(C)(C)N3)c2n1 [Example 41] | –
– | – | – | – | 6.30 to 7.30 | Cc1ccc(F)cc1[C@H](C)Nc1ccn2ncc(C3=NOC(C)(C)N3)c2n1 [Example 43] | –
– | 458 nM | – | – | – | COc1ccc(F)c(Cl)c1[C@@H](C)Nc1ccn2ncc(C3=NOC(C)(C)N3)c2n1 [Example 1] | –
– | – | – | – | – | COc1ccc(F)cc1[C@@H](C)Nc1ccn2ncc(C3=NOC(C)(c4ccc(F)cc4)N3)c2n1 (some centres unmarked) [Example 47] | IC50 (TRKA (G677C)): 50 to 500 nM
54.4 nM | 3.5 nM | – | – | – | C[C@@H](Nc1ccn2ncc(C3=NOC(C)(C)N3)c2n1)c1cccc(F)c1 [Example 31] | –
